Key:
PSMA [1] = biological target: T1, PSMA (Homo sapiens, UniProt Q04609); assay: Inhibition of folate hydrolase activity of PSMA, PSMA positive membrane preparations, substrate MTXGlu2, HPLC; format: biochemical; set-up: host or cells: PSMA positive membrane preparations
Method: (§1) Described herein are new compounds, which can activate RNase L in PSMA expressing cells. 2-5A was targeted for delivery to PSMA by linking it with a ligand to PSMA. We modified ZJ24, a low molecular weight ligand for PSMA, with 2-5A through a 4-(N-maleimidomethyl)cyclohexane-1-amidate linkage to generate RBI 1033. The inhibitory activity of RBI 1033 to the folate hydrolase activity of PSMA was measured. The PSMA positive membrane preparations were incubated with different concentrations of ZJ24, RBI 1033 and RBI 1032 (2-5A with linker only) together with the substrate methotrexate diglutamate (MTXGlu2) for 1 h. The amount of methotrexate and MTXGlu2 were then determined by HPLC. […] Binding studies were performed by incubating membranes with different concentrations of drugs in the presence of 12 nM of ^3H-ZJ24 for 30 min. […] These studies indicate that RBI 1033 has excellent binding properties to PSMA, which can enable it to serve as a vector for imaging or therapy.
Target sequence in this assay (Q04609 whole entry): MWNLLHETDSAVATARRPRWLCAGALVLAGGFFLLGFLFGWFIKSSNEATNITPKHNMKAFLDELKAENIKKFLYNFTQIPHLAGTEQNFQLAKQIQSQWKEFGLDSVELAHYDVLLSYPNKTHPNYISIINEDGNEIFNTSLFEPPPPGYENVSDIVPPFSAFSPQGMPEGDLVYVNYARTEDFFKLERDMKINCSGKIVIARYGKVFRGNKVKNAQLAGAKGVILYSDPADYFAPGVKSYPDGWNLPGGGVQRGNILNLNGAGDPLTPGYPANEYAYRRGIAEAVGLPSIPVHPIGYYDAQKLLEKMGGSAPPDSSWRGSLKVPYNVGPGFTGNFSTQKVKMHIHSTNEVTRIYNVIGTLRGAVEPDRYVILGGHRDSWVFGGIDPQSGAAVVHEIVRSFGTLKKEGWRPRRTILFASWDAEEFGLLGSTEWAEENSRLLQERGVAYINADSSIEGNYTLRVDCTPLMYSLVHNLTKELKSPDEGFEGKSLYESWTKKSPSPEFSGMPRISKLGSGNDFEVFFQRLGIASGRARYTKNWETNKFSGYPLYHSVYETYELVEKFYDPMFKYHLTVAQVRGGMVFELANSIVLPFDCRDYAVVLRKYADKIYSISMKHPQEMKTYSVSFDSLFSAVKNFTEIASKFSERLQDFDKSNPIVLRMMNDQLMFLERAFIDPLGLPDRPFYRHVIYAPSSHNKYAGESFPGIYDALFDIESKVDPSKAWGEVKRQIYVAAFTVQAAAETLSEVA

PSMA [2] = biological target: T1, PSMA; assay: Inhibition of 3H-ZJ24 binding to cell membranes; set-up: host or cells: PSMA positive membrane preparations
Method: as §1
Target sequence in this assay (Q04609 whole entry): as above

[3] = biological target: T2, active dimeric form of soluble recombinant hPSMA (Homo sapiens, UniProt Q04609); assay: Competition binding assay with 3H-ZJ24 on recombinant PSMA; conditions: 0.5 μg recombinant PSMA, 12 nM 3H-ZJ24, 30 min, 37° C
T2 construct: Recombinant protein of the extracellular domain of PSMA can also exist in readily inter-convertible dimer-monomer forms
T2 sequence (Q04609 44-750 limits assumed): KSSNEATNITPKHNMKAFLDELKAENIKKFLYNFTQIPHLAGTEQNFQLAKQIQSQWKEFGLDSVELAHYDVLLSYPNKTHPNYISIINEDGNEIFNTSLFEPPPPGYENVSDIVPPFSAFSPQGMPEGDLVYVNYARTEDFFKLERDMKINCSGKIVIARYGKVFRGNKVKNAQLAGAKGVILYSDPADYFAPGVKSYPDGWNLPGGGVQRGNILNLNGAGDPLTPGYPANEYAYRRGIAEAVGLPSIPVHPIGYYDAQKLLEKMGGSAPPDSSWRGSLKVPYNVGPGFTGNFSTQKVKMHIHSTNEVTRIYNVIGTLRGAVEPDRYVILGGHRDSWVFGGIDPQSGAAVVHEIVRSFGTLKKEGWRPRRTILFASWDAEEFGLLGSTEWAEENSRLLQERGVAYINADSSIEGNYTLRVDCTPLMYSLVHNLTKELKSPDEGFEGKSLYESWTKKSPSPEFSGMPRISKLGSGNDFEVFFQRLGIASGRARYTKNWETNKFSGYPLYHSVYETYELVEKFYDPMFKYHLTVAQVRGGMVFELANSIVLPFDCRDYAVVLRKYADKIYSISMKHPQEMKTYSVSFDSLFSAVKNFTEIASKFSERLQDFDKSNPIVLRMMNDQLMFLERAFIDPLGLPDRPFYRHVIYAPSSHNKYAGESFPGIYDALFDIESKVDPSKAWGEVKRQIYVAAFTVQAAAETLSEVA
Method: Binding and activity of the disclosed 2-5A ligand towards the active dimeric form of soluble recombinant hPSMA was compared with methylated parent ligand Cys-C(O)-Glu ZJ24. The binding assay examines the ability of a novel compound to compete for binding with radio-labeled ZJ24. Different final concentrations of the inhibitor can be incubated in the presence of ZJ24 and the concentration required to inhibit 50% of binding is determined (the EC50). Briefly, 0.5 μg of recombinant PSMA was incubated with the ligand to be tested at different concentrations and 12 nM of ^3H-ZJ24 in a total volume of 100 μL for 30 min at 37° C. The mixture was centrifuged through a 50 kDa cut-off membrane. Finally, 4 mL of biodegradable counting cocktail Bio-Safe II was added, and radioactivity was counted.

PSMA [4] = biological target: T1, PSMA; assay: PSMA activity assay, hydrolysis of polyglutamate substrate MTXGlu2; format: biochemical; set-up: Recombinant protein of the extracellular domain of PSMA can also exist in readily inter-convertible dimer-monomer forms; conditions: 5 ng recombinant PSMA, MTXGlu2 5 nMol, 37° C, 1 h; read-out: EC50 for inhibition of PSMA activity
Method: The activity assay determines the ability of hPSMA to cleave/hydrolyze a polyglutamte substrate under the presence of a ligand at different concentrations. Briefly, recombinant PSMA (5 ng) was incubated with ZJ24 or disclosed 2-5A ligand. After 30 min the polyglutamate substrate MTXGlu2 (5 nMol) was added and the mixture was incubated at 37° C. for 1 h. The reaction was stopped by the addition of 100 μL of 50 mM Na2HPO4. The amount of MTX formed was analyzed using a Thermo Hypersil PRISM RP column (50×4.6 mm, flow rate 1.0 mL/min) at 313 nm.
Target sequence in this assay (Q04609 44-750 limits assumed): as above

PSMA [5] = biological target: T1, PSMA; assay: Binding of 3H-ZJ24 to recombinant hPSMA, Scatchard analysis; set-up: Recombinant protein of the extracellular domain of PSMA can also exist in readily inter-convertible dimer-monomer forms; conditions: 50 mM Tris buffer pH 7.5, 30 min, 37° C
Method: FIG. 2 is a graph showing binding to the monomeric and active dimeric form of soluble recombinant hPSMA of a ^3H (tritium) radiolabled (ZJ24), ^3H—(S)-2-[3-((R)-1-carboxy-2-methyl-sulfanyl-ethyl)-ureido]-pentanedioic acid or [^3H]MeCys-C(O)-Glu Parent PMSA ligand (6) maintains its specificity for PSMA by binding to recombinant hPSMA with a Kd of 2 nM based on Scatchard analysis. The binding assay was performed in 50 mM Tris buffer (pH 7.5). Briefly, 0.5 μg of recombinant PSMA was incubated with ^3H-ZJ24 in a total volume of 100 μL for 30 min at 37° C. The mixture was centrifuged through a 50K cutoff membrane. Then 50 μL of filtrate was added to 4 mL of cocktail and the radioactivity measured. […] After 60 min less than 10% of the compound found in kidney and plasma was degraded.
Target sequence in this assay (Q04609 44-750 limits assumed): as above

Q: How did the “times more potent than ZJ24 as folate hydrolase inhibitor” value (PSMA [1]; compared to ZJ24) turn out when Nc1ncnc2c1ncn2[C@@H]1O[C@H](COP(O)(O)=S)[C@@H](O)[C@H]1OP(O)(=S)OC[C@H]1O[C@@H](n2cnc3c(N)ncnc32)[C@H](OP(O)(=S)OC[C@H]2O[C@@H](n3cnc4c(N)ncnc43)[C@H](OP(O)(=S)OCCCNC(=O)C3CCC(CN4C(=O)CC(SC[C@H](NC(=O)N[C@@H](CCC(=O)O)C(=O)O)C(=O)O)C4=O)CC3)[C@@H]2O)[C@@H]1O (stereo partly shown) [RBI 1033] was run?
A: The value was “more than 10 times”.

Q: And the “times higher affinity to PSMA than ZJ24” value (PSMA [2]; compared to ZJ24)?
A: Its value is “more than 10 times”.

Q: For “(S)-2-[3-((R)-1-carboxy-2-methyl-sulfanyl-ethyl)-ureido]-pentanedioic acid [ZJ24]”, which EC50 [3] is on record?
A: The EC50 was 15.3 nM.

Q: And the IC50 (PSMA [1]; PSMA positive membrane preparations, MTXGlu2 substrate, 1 h, read-out: IC50 as folate hydrolase inhibitor)?
A: The IC50 was 53.9 nM.

Q: What about the IC50 (PSMA [2]; 12 nM 3H-ZJ24, 30 min, read-out: IC50 for inhibition of binding of 3H-ZJ24 to the cell membrane) of the same compound?
A: The IC50 was 15.3 nM.

Q: And the EC50 (PSMA [4])?
A: Its EC50 is 56.7 nM.

Q: Which Kd (PSMA [5]) does the source give for O=C(O)CCC(NC(=O)NC(CS)C(=O)O)C(=O)O (stereo not shown) [Parent PMSA ligand (6)] here?
A: Its Kd is 2 nM.
